# Experimental data published in ChEMBL document CHEMBL1201862, “PubChem BioAssay data set” (2004).
# Active and inactive are the calls of the source.
# How the values were obtained:
# [1] = biological target: Melanin-concentrating hormone receptor 1 (Homo sapiens, UniProt Q99705); test: Fluorescence-based counterscreen for antagonists of the G-protein coupled receptor 7 (GPR7): cell-based high throughput dose response assay to identify antagonists of the melanin-concentrating hormone receptor 1 (MCHR1).; format: functional
# [2] = biological target: T1, Neuropeptides B/W receptor type 1 (Homo sapiens, UniProt P48145); test: Fluorescence-based dose response cell-based high throughput screening assay to identify antagonists of the G-protein coupled receptor 7 (GPR7). [Related pubchem assays: 1952 (Screening assay (GPR7 antagonists).), 1880 (Summary AID.)]; format: functional
# T1 sequence (P48145 whole entry): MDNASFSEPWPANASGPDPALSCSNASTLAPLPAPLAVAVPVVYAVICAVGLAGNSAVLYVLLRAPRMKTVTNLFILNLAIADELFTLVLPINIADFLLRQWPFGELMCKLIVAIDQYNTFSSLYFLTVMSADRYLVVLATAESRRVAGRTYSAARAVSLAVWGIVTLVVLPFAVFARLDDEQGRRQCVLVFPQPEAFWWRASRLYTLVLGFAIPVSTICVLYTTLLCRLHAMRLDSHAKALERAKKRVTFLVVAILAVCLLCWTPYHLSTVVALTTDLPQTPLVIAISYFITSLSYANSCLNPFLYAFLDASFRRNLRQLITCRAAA
# [3] = biological target: Acyl-homoserine lactone acylase PvdQ (Pseudomonas aeruginosa (strain LESB58), UniProt Q9I194); test: PvdQ acylase enzyme activity blockers – biochemical, fluorescence, plate reader and imaging, cherry-picks, dose response (AID 493231)
# [4] = biological target: Polyadenylate-binding protein 1 (Homo sapiens, UniProt P11940); test: blockers of PABP interaction with poly(A) – biochemical, fluorescence polarization, […] (AID 2014)
# [5] = biological target: Eukaryotic translation initiation factor 4H (Homo sapiens, UniProt Q15056); test: eIF4H binding inhibition – biochemical, uHTS, fluorescence polarization, translation initiation inhibitor project, primary screen (AID 2012)
# Leucine aminopeptidase = biological target: T2, Leucine aminopeptidase (Plasmodium falciparum 3D7, UniProt Q8IL11); test: P. falciparum M17LAP inhibitors, primary screen, biochemical, fluorogenic H-Leu-NHMec substrate, 1536-well (AID 1619); format: functional
# T2 sequence (Q8IL11 whole entry): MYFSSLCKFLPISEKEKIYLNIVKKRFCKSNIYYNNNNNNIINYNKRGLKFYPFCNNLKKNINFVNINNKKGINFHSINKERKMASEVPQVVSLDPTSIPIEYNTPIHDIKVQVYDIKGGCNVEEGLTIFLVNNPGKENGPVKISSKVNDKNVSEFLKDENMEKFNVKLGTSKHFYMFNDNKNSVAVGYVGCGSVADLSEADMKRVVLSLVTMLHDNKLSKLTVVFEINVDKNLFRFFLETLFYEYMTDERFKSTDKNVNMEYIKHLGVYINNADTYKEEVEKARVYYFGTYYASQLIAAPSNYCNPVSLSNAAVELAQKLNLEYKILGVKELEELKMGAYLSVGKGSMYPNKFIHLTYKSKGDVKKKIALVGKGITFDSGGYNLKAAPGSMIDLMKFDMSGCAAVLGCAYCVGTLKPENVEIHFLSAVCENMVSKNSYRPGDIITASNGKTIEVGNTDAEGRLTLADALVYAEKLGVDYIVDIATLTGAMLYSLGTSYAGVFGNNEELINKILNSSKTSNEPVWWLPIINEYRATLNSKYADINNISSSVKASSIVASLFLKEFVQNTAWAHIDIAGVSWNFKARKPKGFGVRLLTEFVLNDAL
# Beta-galactosidase [6] = biological target: T3, Beta-galactosidase (Escherichia coli, UniProt Q8VNN2); format: functional
# [7] = biological target: T4, Kappa-type opioid receptor (Homo sapiens, UniProt P41145); format: functional
# [8] = biological target: T4, Kappa-type opioid receptor; format: functional; remark: listed apart in the source
# Aminopeptidase N = biological target: T5, Aminopeptidase N (Plasmodium falciparum FcB1/Columbia, UniProt O96935); test: malaria alanyl aminopeptidase activity blockers – biochemical, fluorogenic H-Leu-NHMec substrate, 1536-well (AID 1445); design: species or system Plasmodium falciparum 3D7, 3D7
# T5 sequence (O96935 whole entry): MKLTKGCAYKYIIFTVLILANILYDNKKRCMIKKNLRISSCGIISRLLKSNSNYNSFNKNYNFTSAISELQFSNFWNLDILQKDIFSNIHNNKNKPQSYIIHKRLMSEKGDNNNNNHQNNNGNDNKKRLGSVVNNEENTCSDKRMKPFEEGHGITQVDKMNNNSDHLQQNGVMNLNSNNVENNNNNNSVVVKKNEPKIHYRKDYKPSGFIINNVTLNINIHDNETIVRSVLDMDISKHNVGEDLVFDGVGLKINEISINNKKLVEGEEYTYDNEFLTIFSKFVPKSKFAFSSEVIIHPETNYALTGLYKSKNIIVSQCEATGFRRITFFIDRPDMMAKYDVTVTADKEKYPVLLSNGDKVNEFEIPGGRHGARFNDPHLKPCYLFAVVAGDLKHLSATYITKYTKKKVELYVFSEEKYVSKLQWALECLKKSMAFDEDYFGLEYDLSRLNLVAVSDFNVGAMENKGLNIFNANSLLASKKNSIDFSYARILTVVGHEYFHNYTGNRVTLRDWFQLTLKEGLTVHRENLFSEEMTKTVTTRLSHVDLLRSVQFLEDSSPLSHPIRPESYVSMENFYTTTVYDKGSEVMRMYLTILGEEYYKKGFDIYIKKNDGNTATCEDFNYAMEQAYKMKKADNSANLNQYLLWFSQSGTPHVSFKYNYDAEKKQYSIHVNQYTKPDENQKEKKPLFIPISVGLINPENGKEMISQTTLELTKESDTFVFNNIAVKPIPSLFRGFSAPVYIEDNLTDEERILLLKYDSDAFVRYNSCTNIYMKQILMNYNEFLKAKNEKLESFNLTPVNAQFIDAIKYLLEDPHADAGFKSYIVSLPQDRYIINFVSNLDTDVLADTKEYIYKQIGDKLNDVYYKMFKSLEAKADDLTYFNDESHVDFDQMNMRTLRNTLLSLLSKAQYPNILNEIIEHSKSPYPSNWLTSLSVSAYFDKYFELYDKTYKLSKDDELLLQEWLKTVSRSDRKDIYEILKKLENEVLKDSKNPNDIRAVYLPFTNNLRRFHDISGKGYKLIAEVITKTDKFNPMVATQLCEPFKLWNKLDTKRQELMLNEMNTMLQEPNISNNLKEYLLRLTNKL
# [9] = reduction of Shn3 3'UTR-driven luciferase in osteoblasts – cell-based, Clone20 osteoblasts, firefly luciferase, cherry-picked, dose response (AID 624132); format: functional;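 also: firefly luciferase luminescence from reporter carrying the Shn3 3'UTR in osteoblasts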
# Beta-galactosidase [10] = biological target: T3, Beta-galactosidase; test: detection-enzyme interference by beta-gal modulators – biochemical, E. coli enzyme, set 3, artefact control for CCR6 antagonist project, dose response (AID 504712); format: functional
# [11] = biological target: T6, Voltage-gated N-type calcium channel alpha-1B subunit/Amyloid beta A4 precursor protein-binding family A member 1 (Homo sapiens, UniProt Q00975+Q02410); format: protein assay
# [12] = biological target: T6, Voltage-gated N-type calcium channel alpha-1B subunit/Amyloid beta A4 precursor protein-binding family A member 1; format: protein assay; remark: listed apart in the source
# [13] = loss of viability in HepG2 cells – cell-based, CellTiter-Glo, cherry-picked, cytotoxicity control for Shn3 inhibitor project, dose response (AID 624134); format: functional
# [14] = non-specific 3'UTR reporter inhibition in Clone20-Shn3RL – cell-based, Renilla luciferase, cherry-picked, counter-screen for Shn3 inhibitor project, dose response (AID 624133); format: functional
# Cytochrome P450 2D6 = Cytochrome P450 2D6 (Homo sapiens, UniProt P10635);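 also: CYP2D6 member of a cytochrome P450 panel assay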
# [15] = biological target: Potassium voltage-gated channel subfamily KQT member 2 (Rattus norvegicus, UniProt O88943, W236L); test: potentiation of rat KCNQ2 current – cell-based, automated electrophysiology, mechanism study for KCNQ2 potentiator project, dose response (AID 2603); format: functional
# [16] = biological target: Intestinal-type alkaline phosphatase (Homo sapiens, UniProt P09923); test: Dose Response confirmation of uHTS hits from a small molecule inhibitors of human intestinal alkaline phosphatase via a luminescent assay. [Related pubchem assays (depositor defined):AID2544, AID2574]; format: functional
# [17] = NIH/3T3 cell viability loss – mouse embryonic fibroblasts, dry powder, set 2, cytotoxicity control, dose response (AID 493247); format: functional, cell-based; details: Fibroblast
# Trypanosoma cruzi = test: anti-trypanosomal activity in host cells – cell-based, plate reader, dry powder, set 3, dose response (AID 493197); format: functional
compound,measurement,setting,value
O=C(c1cnccn1)N(Cc1cccs1)C1(C(=O)NC2CCCC2)CCCCC1,IC50,[1],> 43.8 µM (not active)
same,IC50,[2],> 43.8 µM (not active)
N#CC(c1ccc(Cl)cc1)c1ncc(C(F)(F)F)cc1Cl (configuration not stated),AC50,[3],0.939 µM (active)
O=C(CN1CCN(S(=O)(=O)/C=C/c2ccccc2)CC1)NC(=O)NCc1ccco1,IC50,[4],> 100 µM (inactive)
same,IC50,[5],13.1 µM (active)
CCOc1cc(/C=C2\SC(=S)N(C(C(=O)O)c3ccccc3)C2=O)ccc1O (configuration not stated),IC50,Leucine aminopeptidase,45.5 µM (active)
same,EC50,Beta-galactosidase [6],14.3 µM (active)
same,IC50,[7],> 32 µM
same,IC50,[8],23.2 µM (inactive)
same,IC50,Aminopeptidase N,31.8 µM (active)
CCC(=O)N1c2ccc(S(=O)(=O)NCc3ccco3)cc2CC1C (configuration not stated),IC50,[4],24.1 µM (active)
same,IC50,[5],10.2 µM (active)
CSc1nnc(-c2ccc([N+](=O)[O-])cc2)o1,AC50,[3],6.96 µM (active)
CCOC(=O)c1[nH]c2ccc(OC)cc2c1NS(=O)(=O)c1ccc(OC)cc1OC,IC50,[1],> 43.8 µM (not active)
same,IC50,[2],> 43.8 µM (not active)
CCOc1ccc(N2C(=O)CC(Sc3nnnn3-c3ccccc3)C2=O)cc1 (configuration not stated),AC50,[9],11.5 µM (active)
same,IC50,Beta-galactosidase [10],> 66.6 µM (inactive)
same,IC50,[11],13.4 µM (active)
same,IC50,[12],3.74 µM (active)
same,AC50,[13],40.3 µM (active)
same,AC50,[14],12.1 µM (active)
CCOC(=O)c1c(-c2ccc(C)o2)csc1NC(=S)NC(=O)N(C)C,IC50,Beta-galactosidase [10],> 66.6 µM (inactive)
same,AC50,Cytochrome P450 2D6,inconclusive
same,EC50,[15],3.01 µM (active)
CC1Cn2c(nnc2C23CC4CC(CC(C4)C2)C3)S1 (configuration not stated),IC50,[16],> 100 µM (inactive)
O=C(N/N=C/c1ccc([N+](=O)[O-])o1)C1CCCCC1,AC50,[17],21.5 µM (active)
same,AC50,Trypanosoma cruzi,0.501 µM (active)
